Columns and labels:
[1] = target: F-actin-capping protein subunit beta (Homo sapiens) (UniProt P47756); note: assay method not described here
[2] = target: Cystatin-B (Homo sapiens) (UniProt P04080); note: assay method not described here
[3] = target: STE20-like serine/threonine-protein kinase (Homo sapiens) (UniProt Q9H2G2); note: assay method not described here
[4] = target: Ephrin type-A receptor 6 (Homo sapiens, UniProt Q9UF33); assay: Inhibition of Nano Luc-fused full length C-terminal EPHA6 (unknown origin) expressed in HEK293T cells using NanoGlo as substrate incubated for 2 hrs in presence of tracer by NanoBRET assay; assay type: cell-based
[5] = target: Heterogeneous nuclear ribonucleoprotein U-like protein 1 (Homo sapiens) (UniProt Q9BUJ2); note: assay method not described here
[6] = target: Sodium/potassium-transporting ATPase subunit alpha-1 (Homo sapiens) (UniProt P05023); note: assay method not described here
[7] = target: Calnexin (Homo sapiens) (UniProt P27824); note: assay method not described here
Chain of Calnexin (Homo sapiens) (P27824 whole entry, the tested form may be a part): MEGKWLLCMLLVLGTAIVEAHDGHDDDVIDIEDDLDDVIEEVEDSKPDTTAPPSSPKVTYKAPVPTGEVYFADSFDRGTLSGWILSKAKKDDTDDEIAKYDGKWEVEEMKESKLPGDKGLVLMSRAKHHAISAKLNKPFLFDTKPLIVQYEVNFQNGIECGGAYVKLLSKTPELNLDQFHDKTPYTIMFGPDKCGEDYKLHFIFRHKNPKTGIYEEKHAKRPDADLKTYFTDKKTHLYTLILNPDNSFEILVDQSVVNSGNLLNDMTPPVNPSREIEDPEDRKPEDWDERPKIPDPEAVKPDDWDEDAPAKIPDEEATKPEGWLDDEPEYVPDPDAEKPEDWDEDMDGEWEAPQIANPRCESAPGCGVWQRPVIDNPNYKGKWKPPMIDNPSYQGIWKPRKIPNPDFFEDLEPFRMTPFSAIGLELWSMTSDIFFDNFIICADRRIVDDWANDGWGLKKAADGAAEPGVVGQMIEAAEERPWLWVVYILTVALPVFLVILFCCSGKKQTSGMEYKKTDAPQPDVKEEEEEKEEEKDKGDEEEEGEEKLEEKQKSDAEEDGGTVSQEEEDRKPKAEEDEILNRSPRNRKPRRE

[8] = target: CDGSH iron-sulfur domain-containing protein 2 (Homo sapiens) (UniProt Q8N5K1); note: assay method not described here
[9] = target: Large ribosomal subunit protein uL22 (Homo sapiens) (UniProt P18621); note: assay method not described here
[10] = target: Serine/threonine-protein kinase/endoribonuclease IRE1 (Homo sapiens) (UniProt O75460); note: assay method not described here
[11] = target: Mitogen-activated protein kinase kinase kinase 1 (Homo sapiens) (UniProt Q13233); note: assay method not described here
[12] = target: Protein FAM83B (Homo sapiens) (UniProt Q5T0W9); note: assay method not described here
Chain of Protein FAM83B (Homo sapiens) (Q5T0W9 whole entry): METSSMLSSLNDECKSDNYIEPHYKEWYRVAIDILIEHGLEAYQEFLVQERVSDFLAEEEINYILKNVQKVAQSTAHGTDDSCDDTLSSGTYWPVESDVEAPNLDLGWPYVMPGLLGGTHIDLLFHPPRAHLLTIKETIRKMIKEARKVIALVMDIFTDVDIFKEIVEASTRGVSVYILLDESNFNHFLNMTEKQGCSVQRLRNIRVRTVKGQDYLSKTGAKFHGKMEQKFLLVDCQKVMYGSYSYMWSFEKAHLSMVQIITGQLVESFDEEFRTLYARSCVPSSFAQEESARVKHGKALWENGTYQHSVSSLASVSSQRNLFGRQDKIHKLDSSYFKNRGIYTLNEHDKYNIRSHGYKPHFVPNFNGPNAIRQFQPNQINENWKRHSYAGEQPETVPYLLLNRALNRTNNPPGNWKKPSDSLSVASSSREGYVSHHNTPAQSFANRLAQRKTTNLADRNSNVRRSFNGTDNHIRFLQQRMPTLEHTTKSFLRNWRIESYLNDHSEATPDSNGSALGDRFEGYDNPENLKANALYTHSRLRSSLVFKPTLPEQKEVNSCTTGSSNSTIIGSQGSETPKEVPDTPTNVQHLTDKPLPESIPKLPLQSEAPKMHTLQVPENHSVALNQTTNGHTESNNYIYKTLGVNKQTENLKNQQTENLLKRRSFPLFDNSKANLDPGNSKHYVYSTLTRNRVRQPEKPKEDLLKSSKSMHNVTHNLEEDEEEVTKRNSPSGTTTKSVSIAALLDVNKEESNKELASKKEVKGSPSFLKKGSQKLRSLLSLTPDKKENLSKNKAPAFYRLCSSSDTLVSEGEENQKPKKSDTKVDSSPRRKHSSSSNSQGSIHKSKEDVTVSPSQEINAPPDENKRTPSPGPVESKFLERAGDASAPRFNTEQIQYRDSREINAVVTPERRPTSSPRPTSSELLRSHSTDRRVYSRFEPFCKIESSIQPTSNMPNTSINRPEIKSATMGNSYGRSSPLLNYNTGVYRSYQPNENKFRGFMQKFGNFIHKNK

[13] = target: Eukaryotic translation initiation factor 3 subunit I (Homo sapiens) (UniProt Q13347); note: assay method not described here
[14] = target: Uncharacterized protein FLJ45252 (Homo sapiens) (UniProt Q6ZSR9); note: assay method not described here
[15] = target: T-complex protein 1 subunit eta (Homo sapiens) (UniProt Q99832); note: assay method not described here
Chain of T-complex protein 1 subunit eta (Homo sapiens) (Q99832 whole entry, one chain of several): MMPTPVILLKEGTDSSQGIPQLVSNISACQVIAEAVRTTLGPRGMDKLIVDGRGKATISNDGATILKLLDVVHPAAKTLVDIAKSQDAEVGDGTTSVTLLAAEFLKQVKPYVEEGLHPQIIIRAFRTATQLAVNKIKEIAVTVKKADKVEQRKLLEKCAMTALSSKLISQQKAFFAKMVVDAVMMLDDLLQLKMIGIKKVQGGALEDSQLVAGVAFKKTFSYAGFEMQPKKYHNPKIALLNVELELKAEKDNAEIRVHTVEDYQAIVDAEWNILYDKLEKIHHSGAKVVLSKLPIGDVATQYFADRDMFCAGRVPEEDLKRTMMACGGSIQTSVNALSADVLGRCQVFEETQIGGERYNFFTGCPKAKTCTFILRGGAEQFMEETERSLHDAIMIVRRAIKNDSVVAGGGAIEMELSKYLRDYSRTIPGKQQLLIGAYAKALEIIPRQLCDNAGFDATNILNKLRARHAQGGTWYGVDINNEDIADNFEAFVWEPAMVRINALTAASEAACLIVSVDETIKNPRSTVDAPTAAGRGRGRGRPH

[16] = target: Eukaryotic initiation factor 4A-I (Homo sapiens) (UniProt P60842); note: assay method not described here
[17] = target: Microtubule-actin cross-linking factor 1, isoforms 1/2/3/4/5 (Homo sapiens) (UniProt Q9UPN3); note: assay method not described here
[18] = target: Actin-like protein 6A (Homo sapiens) (UniProt O96019); note: assay method not described here
[19] = target: Myosin light polypeptide 6 (Homo sapiens) (UniProt P60660); note: assay method not described here
[20] = target: Cyclin-dependent kinase 9 (Homo sapiens) (UniProt P50750); note: assay method not described here
[21] = target: Calcium/calmodulin-dependent protein kinase type II subunit beta (Homo sapiens) (UniProt Q13554); note: assay method not described here
[22] = target: Scaffold protein ILK (Homo sapiens) (UniProt Q13418); note: assay method not described here
Chain of Scaffold protein ILK (Homo sapiens) (Q13418 whole entry, the tested form may be a part): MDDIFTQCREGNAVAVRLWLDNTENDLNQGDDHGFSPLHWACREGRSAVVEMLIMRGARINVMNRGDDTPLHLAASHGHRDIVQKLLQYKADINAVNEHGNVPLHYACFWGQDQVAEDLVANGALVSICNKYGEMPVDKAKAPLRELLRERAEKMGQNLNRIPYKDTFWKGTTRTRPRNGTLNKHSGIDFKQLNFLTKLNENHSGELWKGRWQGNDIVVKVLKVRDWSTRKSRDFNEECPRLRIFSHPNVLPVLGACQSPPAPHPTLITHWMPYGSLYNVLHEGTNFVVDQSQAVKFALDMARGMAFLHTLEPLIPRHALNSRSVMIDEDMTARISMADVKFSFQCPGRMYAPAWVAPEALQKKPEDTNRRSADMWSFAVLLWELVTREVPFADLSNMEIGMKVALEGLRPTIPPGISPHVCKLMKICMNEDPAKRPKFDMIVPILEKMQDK

[23] = target: TBC1 domain family member 15 (Homo sapiens) (UniProt Q8TC07); note: assay method not described here
[24] = target: Calcium/calmodulin-dependent protein kinase type II subunit delta (Homo sapiens) (UniProt Q13557); note: assay method not described here
[25] = target: Ubiquitin-associated protein 2 (Homo sapiens) (UniProt Q5T6F2); note: assay method not described here
[26] = target: Hematopoietic lineage cell-specific protein (Homo sapiens) (UniProt P14317); note: assay method not described here
[27] = target: Metaxin-2 (Homo sapiens) (UniProt O75431); note: assay method not described here
[28] = target: Signal peptidase complex subunit 2 (Homo sapiens) (UniProt Q15005); note: assay method not described here
Chain of Signal peptidase complex subunit 2 (Homo sapiens) (Q15005 whole entry, the tested form may be a part, one chain of several): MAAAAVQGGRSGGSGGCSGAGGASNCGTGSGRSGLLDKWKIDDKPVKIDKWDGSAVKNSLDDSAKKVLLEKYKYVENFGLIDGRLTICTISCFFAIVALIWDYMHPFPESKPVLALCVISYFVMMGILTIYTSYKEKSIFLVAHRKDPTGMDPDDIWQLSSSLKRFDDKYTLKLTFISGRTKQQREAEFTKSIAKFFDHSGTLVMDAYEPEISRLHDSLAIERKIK

[29] = target: Discoidin domain-containing receptor 2 (Homo sapiens) (UniProt Q16832); note: assay method not described here
[30] = target: Protein VAC14 homolog (Homo sapiens) (UniProt Q08AM6); note: assay method not described here
[31] = target: Mitogen-activated protein kinase kinase kinase kinase 2 (Homo sapiens) (UniProt Q12851); note: assay method not described here
[32] = target: Ephrin type-B receptor 6 (Homo sapiens) (UniProt O15197); note: assay method not described here
[33] = target: Tyrosine-protein kinase Yes (Homo sapiens) (UniProt P07947); note: assay method not described here
Chain of Tyrosine-protein kinase Yes (Homo sapiens) (P07947 2-543 limits assumed): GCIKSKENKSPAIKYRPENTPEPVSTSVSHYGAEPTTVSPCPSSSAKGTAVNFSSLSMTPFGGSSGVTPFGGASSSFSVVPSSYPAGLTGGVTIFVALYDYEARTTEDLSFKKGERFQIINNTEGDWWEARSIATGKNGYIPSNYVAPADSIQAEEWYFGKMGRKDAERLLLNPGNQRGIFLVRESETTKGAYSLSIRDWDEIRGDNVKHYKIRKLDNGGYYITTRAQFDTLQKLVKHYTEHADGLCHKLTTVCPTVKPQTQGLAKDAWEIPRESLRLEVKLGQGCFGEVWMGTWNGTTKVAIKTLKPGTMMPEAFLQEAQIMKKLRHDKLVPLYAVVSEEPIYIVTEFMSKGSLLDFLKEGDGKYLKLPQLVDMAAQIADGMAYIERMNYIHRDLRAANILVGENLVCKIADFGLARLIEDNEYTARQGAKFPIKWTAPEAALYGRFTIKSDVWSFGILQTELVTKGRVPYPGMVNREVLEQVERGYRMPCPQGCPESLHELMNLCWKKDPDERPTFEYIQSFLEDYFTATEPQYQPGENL

[34] = target: Neutral amino acid transporter B(0) (Homo sapiens) (UniProt Q15758); note: assay method not described here
[35] = target: Cyclin-dependent kinase 17 (Homo sapiens) (UniProt Q00537); note: assay method not described here
[36] = target: NADH dehydrogenase [ubiquinone] 1 alpha subcomplex assembly factor 4 (Homo sapiens) (UniProt Q9P032); note: assay method not described here
Chain of NADH dehydrogenase [ubiquinone] 1 alpha subcomplex assembly factor 4 (Homo sapiens) (Q9P032 whole entry, one chain of several): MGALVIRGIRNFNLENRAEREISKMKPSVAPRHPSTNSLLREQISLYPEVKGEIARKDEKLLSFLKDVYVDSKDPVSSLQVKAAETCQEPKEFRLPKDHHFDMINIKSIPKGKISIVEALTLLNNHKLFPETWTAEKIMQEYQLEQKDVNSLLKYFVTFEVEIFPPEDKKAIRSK

[37] = target: Tyrosine-protein kinase BTK (Homo sapiens) (UniProt Q06187); note: assay method not described here
[38] = target: Ephrin type-A receptor 2 (Homo sapiens, UniProt P29317); note: assay method not described here
[39] = target: Gamma-tubulin complex component 3 (Homo sapiens) (UniProt Q96CW5); note: assay method not described here
Chain of Gamma-tubulin complex component 3 (Homo sapiens) (Q96CW5 whole entry, one chain of several): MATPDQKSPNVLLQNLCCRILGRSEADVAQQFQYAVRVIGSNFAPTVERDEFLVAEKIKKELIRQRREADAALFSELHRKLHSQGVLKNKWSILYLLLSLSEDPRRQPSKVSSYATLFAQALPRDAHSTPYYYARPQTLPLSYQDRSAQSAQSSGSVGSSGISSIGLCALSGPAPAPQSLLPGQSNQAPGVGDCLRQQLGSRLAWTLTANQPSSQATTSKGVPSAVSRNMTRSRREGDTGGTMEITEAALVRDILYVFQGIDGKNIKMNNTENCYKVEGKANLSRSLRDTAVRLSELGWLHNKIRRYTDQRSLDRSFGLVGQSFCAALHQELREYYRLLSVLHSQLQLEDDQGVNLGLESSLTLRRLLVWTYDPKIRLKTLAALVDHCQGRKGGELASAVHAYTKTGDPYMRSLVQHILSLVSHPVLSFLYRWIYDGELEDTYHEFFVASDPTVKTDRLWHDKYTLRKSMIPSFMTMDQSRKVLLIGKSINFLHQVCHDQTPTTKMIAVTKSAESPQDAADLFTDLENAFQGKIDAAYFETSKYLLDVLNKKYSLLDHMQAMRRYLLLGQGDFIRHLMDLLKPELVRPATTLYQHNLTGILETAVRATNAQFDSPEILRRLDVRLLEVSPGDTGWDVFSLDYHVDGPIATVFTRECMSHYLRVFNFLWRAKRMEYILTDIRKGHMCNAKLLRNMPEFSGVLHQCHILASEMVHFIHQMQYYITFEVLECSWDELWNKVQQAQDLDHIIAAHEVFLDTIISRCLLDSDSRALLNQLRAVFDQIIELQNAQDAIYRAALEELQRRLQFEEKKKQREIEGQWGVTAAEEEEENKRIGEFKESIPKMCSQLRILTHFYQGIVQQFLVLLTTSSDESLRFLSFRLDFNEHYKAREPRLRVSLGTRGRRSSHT

[40] = target: Amino acid transporter heavy chain SLC3A2 (Homo sapiens) (UniProt P08195); note: assay method not described here
[41] = target: Septin-9 (Homo sapiens) (UniProt Q9UHD8); note: assay method not described here
[42] = target: GPI-anchor transamidase (Homo sapiens) (UniProt Q92643); note: assay method not described here
[43] = target: Deoxycytidine kinase (Homo sapiens) (UniProt P27707); note: assay method not described here
[44] = target: LIM and SH3 domain protein 1 (Homo sapiens) (UniProt Q14847); note: assay method not described here
Chain of LIM and SH3 domain protein 1 (Homo sapiens) (Q14847 whole entry, the tested form may be a part): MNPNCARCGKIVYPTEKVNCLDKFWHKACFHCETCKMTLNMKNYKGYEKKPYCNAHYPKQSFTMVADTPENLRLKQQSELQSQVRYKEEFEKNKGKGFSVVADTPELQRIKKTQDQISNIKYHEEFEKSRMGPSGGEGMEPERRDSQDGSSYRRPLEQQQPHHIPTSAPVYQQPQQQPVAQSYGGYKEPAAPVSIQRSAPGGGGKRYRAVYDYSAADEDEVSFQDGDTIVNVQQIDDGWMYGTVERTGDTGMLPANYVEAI

[45] = target: Integrin alpha-6 (Homo sapiens) (UniProt P23229); note: assay method not described here

Chain of F-actin-capping protein subunit beta (Homo sapiens) (P47756 whole entry): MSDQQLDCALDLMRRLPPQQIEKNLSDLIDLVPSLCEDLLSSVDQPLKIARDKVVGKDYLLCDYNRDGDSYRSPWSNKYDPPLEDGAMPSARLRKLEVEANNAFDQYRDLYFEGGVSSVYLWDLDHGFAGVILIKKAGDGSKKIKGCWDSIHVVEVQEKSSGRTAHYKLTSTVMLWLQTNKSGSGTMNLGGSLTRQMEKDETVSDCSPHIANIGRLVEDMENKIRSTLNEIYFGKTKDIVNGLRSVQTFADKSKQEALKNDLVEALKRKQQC

## Cc1ccc(C(=O)Nc2cccc(C(F)(F)F)c2)cc1Nc1nc(-c2cccnc2)nc2c1cnn2C
[1]
  ED50: 8.9 µM
[2]
  ED50: 6.95 µM
[3]
  ED50: 0.0219 µM
[4]
  IC50: 0.263 µM
[5]
  ED50: 0.922 µM
[6]
  ED50: 0.00682 µM
[7]
  ED50: 5.64 µM
[8]
  ED50: 3.1 µM
[9]
  ED50: 6.61 µM
[10]
  ED50: 0.00529 µM
[11]
  ED50: 6.12 µM
[12]
  ED50: 1380 µM
[13]
  ED50: 0.108 µM
[14]
  ED50: 0.248 µM
[15]
  ED50: 50.3 µM
[16]
  ED50: 0.0241 µM
[17]
  ED50: 5.13 µM
[18]
  ED50: 3.26 µM
[19]
  ED50: 5.79 µM
[20]
  ED50: 4.6 µM
[21]
  ED50: 17.4 µM
[22]
  ED50: 57.4 µM
[23]
  ED50: 0.829 µM
[24]
  ED50: 0.11 µM
[25]
  ED50: 111 µM
[26]
  ED50: 0.0299 µM
[27]
  ED50: 0.0101 µM
[28]
  ED50: 0.916 µM
[29]
  ED50: 0.542 µM
[30]
  ED50: 0.648 µM
[31]
  ED50: 0.0201 µM
[32]
  ED50: 0.364 µM
[33]
  ED50: 2.58 µM
[34]
  ED50: 0.0263 µM
[35]
  ED50: 13.1 µM
[36]
  ED50: 0.0015 µM
[37]
  ED50: 5.02 µM
[38]
  ED50: 0.58 µM
[39]
  ED50: 10.2 µM
[40]
  ED50: 5.57 µM
[41]
  ED50: 8.65 µM
[42]
  ED50: 3.43 µM
[43]
  ED50: 5 µM
[44]
  ED50: 0.00467 µM
[45]
  ED50: 0.0163 µM

## Cc1ccc(C(=O)Nc2cccc(C(F)(F)F)c2)cc1Nc1nc(-c2cccnc2)nc2nn(C)cc12
[1]
  ED50: 0.393 µM
[2]
  ED50: 12.8 µM
[3]
  ED50: 0.187 µM
[4]
  IC50: > 50 µM
[5]
  ED50: 2.56 µM
[6]
  ED50: 0.553 µM
[7]
  ED50: 9.63 µM
[8]
  ED50: 0.0591 µM
[9]
  ED50: 15.8 µM
[10]
  ED50: 1.92 µM
[11]
  ED50: 3.34 µM
[12]
  ED50: 0.254 µM
[13]
  ED50: 35.5 µM
[14]
  ED50: 0.000276 µM
[15]
  ED50: 0.117 µM
[16]
  ED50: 58.1 µM
[17]
  ED50: 0.0234 µM
[18]
  ED50: 12.6 µM
[19]
  ED50: 0.0815 µM
[20]
  ED50: 0.135 µM
[21]
  ED50: 0.0059 µM
[22]
  ED50: 67.3 µM
[23]
  ED50: 34.9 µM
[24]
  ED50: 0.0386 µM
[25]
  ED50: 4.5 µM
[26]
  ED50: 3210 µM
[27]
  ED50: 1.77 µM
[28]
  ED50: 2.99 µM
[29]
  ED50: 0.387 µM
[30]
  ED50: 3.84 µM
[31]
  ED50: 0.0236 µM
[32]
  ED50: 6.14 µM
[33]
  ED50: 3.56 µM
[34]
  ED50: 0.032 µM
[35]
  ED50: 0.121 µM
[36]
  ED50: 1.82 µM
[37]
  ED50: 5.75 µM
[38]
  ED50: 6.17 µM
[39]
  ED50: 0.00173 µM
[40]
  ED50: 0.362 µM
[41]
  ED50: 0.109 µM
[42]
  ED50: 0.0839 µM
[43]
  ED50: 0.00309 µM
[44]
  ED50: 109 µM
[45]
  ED50: 7.19 µM

— ChEMBL document CHEMBL5649169 (ChemMedChem, 2018)
